Data as given in patent US9562035B2, “Benzamide derivative useful as FASN inhibitors for the treatment of cancer” (Janssen Pharmaceutica NV, priority 2013, dated 2017).

What was measured:
A2780 ovarian cells [1] = assay: A2780 Ovarian Cell Proliferation Assay in Lipid Reduced Medium, without Palmitate; type: cell-based; details: Homo sapiens, A2780; lipid reduced medium, without palmitate, 96 h, MTT; read-out: Proliferation A2780 w/o Palmitate pIC50 (converted)
In short: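 A2780 cells were seeded in 10% FCS medium and switched next day to 10% lipid-reduced serum without palmitate. Compounds at 0.01–30 μM were added with 0.2% DMSO, 0.2% fatty-acid-free BSA and 0.25% ethanol final. After 96 h, MTT absorbance at 544 nm was normalized to plate controls, and IC50/pIC50 came from a 4-parameter logistic fit.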

[2] = target: T1, FASN Keto-reductase Domain (Homo sapiens, UniProt P49327); assay: Fatty Acid Synthase Keto-Reductase Domain (FASN KR) Inhibition; type: biochemical; details: mean where tested more than once; read-out: FASN K-R Domain pIC50 (converted)
T1 construct: 10 μL hFASN enzyme (full length, 300 ng, purified in house) and 360 μM NADPH; made in house
T1 sequence (P49327 whole entry, the tested form may be a part): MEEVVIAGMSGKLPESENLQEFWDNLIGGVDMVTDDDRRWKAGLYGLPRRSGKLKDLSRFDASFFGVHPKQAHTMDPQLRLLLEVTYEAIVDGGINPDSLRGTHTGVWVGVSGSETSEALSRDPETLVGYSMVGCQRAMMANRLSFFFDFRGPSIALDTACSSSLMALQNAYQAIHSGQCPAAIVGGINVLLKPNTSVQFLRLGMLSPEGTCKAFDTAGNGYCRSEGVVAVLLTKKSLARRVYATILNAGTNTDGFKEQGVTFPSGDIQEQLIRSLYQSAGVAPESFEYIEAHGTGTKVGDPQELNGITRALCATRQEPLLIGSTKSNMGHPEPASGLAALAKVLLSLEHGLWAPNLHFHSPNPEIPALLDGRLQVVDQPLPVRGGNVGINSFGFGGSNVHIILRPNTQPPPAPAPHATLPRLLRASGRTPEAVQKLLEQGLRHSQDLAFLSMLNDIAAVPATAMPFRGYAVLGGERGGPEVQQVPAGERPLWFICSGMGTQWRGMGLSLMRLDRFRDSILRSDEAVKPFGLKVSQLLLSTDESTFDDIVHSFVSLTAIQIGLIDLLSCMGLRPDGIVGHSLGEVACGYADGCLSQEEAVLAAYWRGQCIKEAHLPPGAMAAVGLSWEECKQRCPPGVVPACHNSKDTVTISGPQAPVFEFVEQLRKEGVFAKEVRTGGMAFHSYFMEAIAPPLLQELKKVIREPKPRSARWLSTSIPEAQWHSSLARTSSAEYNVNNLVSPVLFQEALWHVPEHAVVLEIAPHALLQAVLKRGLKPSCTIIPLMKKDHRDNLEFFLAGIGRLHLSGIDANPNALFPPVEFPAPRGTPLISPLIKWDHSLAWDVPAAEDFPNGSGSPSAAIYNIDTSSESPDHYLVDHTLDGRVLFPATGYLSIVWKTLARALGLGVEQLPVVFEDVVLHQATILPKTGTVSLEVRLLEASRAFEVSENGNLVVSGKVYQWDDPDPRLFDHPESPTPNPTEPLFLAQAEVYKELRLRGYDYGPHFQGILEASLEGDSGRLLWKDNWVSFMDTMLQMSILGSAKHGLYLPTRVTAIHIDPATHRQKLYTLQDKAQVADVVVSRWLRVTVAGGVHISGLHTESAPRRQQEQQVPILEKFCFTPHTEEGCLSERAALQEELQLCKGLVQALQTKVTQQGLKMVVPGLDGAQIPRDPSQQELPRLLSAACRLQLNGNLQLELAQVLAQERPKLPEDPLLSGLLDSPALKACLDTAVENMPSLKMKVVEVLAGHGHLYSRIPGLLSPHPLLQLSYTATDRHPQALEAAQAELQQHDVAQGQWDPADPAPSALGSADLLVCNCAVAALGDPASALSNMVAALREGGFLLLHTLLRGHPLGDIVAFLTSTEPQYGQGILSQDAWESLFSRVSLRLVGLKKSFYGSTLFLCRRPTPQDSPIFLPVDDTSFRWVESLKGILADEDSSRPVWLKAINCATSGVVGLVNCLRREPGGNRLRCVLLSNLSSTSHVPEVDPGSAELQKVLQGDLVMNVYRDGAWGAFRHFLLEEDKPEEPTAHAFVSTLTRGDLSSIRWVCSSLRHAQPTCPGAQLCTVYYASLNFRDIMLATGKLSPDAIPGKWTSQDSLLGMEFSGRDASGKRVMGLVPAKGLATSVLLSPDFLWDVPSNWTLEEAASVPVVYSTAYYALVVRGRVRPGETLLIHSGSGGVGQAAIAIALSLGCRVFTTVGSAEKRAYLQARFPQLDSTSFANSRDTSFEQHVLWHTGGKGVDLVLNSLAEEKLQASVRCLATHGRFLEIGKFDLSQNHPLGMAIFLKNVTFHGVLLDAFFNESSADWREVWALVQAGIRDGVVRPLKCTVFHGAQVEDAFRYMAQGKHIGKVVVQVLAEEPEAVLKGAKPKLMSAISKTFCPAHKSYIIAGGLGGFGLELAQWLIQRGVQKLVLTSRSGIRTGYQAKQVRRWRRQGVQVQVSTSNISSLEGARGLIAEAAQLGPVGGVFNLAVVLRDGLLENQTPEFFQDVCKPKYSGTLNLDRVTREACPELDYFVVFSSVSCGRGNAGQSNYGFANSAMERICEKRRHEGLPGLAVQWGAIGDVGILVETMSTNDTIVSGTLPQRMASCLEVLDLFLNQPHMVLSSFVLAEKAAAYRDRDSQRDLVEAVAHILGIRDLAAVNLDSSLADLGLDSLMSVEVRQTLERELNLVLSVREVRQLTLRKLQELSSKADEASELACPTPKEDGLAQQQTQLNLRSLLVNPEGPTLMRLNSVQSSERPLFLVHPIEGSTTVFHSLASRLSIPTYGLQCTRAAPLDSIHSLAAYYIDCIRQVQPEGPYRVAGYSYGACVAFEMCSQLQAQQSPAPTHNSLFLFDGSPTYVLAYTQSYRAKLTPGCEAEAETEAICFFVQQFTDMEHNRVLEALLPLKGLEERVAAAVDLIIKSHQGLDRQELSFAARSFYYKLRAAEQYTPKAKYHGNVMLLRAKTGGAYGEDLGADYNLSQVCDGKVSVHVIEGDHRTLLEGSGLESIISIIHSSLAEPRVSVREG
In short: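 Full-length human FASN (300 ng) in 100 mM KH2PO4 pH 7.5 with 360 μM NADPH and 180 mM ethyl acetoacetate (stock); A340 decrease read over 20 min at room temperature.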

A2780 ovarian cells [3] = assay: A2780 Ovarian Cell Proliferation Assay in Lipid Reduced Medium, with Palmitate (control); type: cell-based; details: Homo sapiens, A2780; lipid reduced medium, 25 μM palmitate, 96 h, MTT; read-out: Proliferation A2780 with Palmitate pIC50 (converted)
In short: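 A2780 cells were seeded in RPMI1640 with 10% FCS, then switched next day to medium with 10% lipid-reduced serum. Compound was added with final 25 μM palmitate, 0.2% fatty-acid-free BSA and 0.2% DMSO, and incubated 96 h at 37 °C. Read-out was MTT absorbance at 544 nm; pIC50 = −log(IC50) from curve fit.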

[4] = target: T2, hFASN enzyme (full length) (Homo sapiens, UniProt P49327); assay: Fatty Acid Synthase (FASN) Inhibition Scintillation Proximity Assay; type: biochemical; details: for IC50: mean where tested more than once, ~ = standard error of pIC50 larger than 0.5; for inhibition at 10 µM: read-out: FASN % Effect @1E−05M
T2 construct: 10 μL hFASN enzyme (full length, 300 ng, purified in house); made in house
T2 sequence (P49327 whole entry): as the sequence (P49327 whole entry, the tested form may be a part) above
In short: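 Purified full-length human FASN (300 ng) incubated 60 min at room temperature with NADPH, [3H]-acetyl-CoA and malonyl-CoA in 100 mM KH2PO4 pH 7.5, 1 mM DTT; compound at 30 μM to 0.01 μM. [3H]-palmitate captured by SPA imaging beads; IC50 from 4-parameter fit, reported as pIC50.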

| SMILES | IC50 (A2780 ovarian cells [1]) [nM] | IC50 [2] [nM] | IC50 (A2780 ovarian cells [3]) [nM] | IC50 [4] [nM] | inhibition at 10 µM [4] [%] |
| --- | --- | --- | --- | --- | --- |
| Cc1ccc(C(=O)N2CC(c3ccc(-c4cnn(C)c4)cc3)C2)cc1NC(=O)c1ccc(NC(C)C)nc1 [Compound 24, 6-(isopropylamino)-N-(2-methyl-5-(3-(4-(1-methyl-1H-pyrazol-4-yl)phenyl)azetidine-1-carbonyl)phenyl)nicotinamide] | 85.1 | 38.9 | > 10000 | 33.9 | 111 |
| CC(C)Nc1ccc(C(=O)Nc2cc(C(=O)N3CCC(c4ccc(-c5cnn(C)c5)cc4)CC3)ccc2OCc2ccccc2)cn1 [Compound 271, N-(2-(benzyloxy)-5-(4-(4-(1-methyl-1H-pyrazol-4-yl)phenyl)piperidine-1-carbonyl)phenyl)-6-(isopropylamino)nicotinamide] | 490 | 537 | > 10000 | 100 | 101 |
| CCCCN1CCC(C(=O)Nc2cc(C(=O)N3CCC(c4ccc(-c5cnn(C)c5)cc4)CC3)ccc2C)C1 (stereo not drawn) [Compound 212, 1-butyl-N-(2-methyl-5-(4-(4-(1-methyl-1H-pyrazol-4-yl)phenyl)piperidine-1-carbonyl)phenyl)pyrrolidine-3-carboxamide] | 120 | 324 | > 10000 | 120 | 108 |
| Cc1ccc(C(=O)N2CCC(c3ccc(-c4cnn(C)c4)cn3)CC2)cc1NC(=O)c1ccc(NC(C)C)nc1 [Compound 264, 6-(isopropylamino)-N-(2-methyl-5-(4-(5-(1-methyl-1H-pyrazol-4-yl)pyridin-2-yl)piperidine-1-carbonyl)phenyl)nicotinamide] | 87.1 | 219 | > 10000 | 58.9 | 109 |
| Cc1ccc(C(=O)N2CC(c3ccc(-c4ccncc4N)cc3)C2)cc1NC(=O)c1ccc(Cl)nc1 [Compound 266, N-(5-(3-(4-(3-aminopyridin-4-yl)phenyl)azetidine-1-carbonyl)-2-methylphenyl)-6-chloronicotinamide] | ~41.7 | 107 | > 10000 | 38 | 112 |
| Cc1ccc(C(=O)N2CCC(c3ccc4ccncc4c3)CC2)cc1NC(=O)c1ccc(Cl)nc1 [Compound 37, 6-chloro-N-(5-(4-(isoquinolin-7-yl)piperidine-1-carbonyl)-2-methylphenyl)nicotinamide] | 617 | 562 | 3390 | 537 | 94 |
| Cc1ccc(C(=O)N2CCC(c3ccc(-c4cnn(C(C)C)c4)cc3)CC2)cc1NC(=O)c1ccc(NC(C)C)nc1 [Compound 247, N-(5-(4-(4-(1-isopropyl-1H-pyrazol-4-yl)phenyl)piperidine-1-carbonyl)-2-methylphenyl)-6-(isopropylamino)nicotinamide] | 38.9 | 91.2 | 6170 | 33.9 | 112 |
| Cc1ccc(C(=O)N2CCC(c3ccc(-n4ccnc4)cc3)C(C)(C)C2)cc1NC(=O)c1ccc(NC(C)C)nc1 (stereo not drawn) [Compound #43, N-(5-(4-(4-(1H-imidazol-1-yl)phenyl)-3,3-dimethylpiperidine-1-carbonyl)-2-methylphenyl)-6-(isopropylamino)nicotinamide] | 132 | 69.2 | > 10000 | 44.7 | 106 |
| COc1ccc(C(=O)N2CC(c3ccc(-c4cnn(C)c4)cc3)C2)cc1NC(=O)c1ccc(NC(C)C)nc1 [Compound 202, 6-(isopropylamino)-N-(2-methoxy-5-(3-(4-(1-methyl-1H-pyrazol-4-yl)phenyl)azetidine-1-carbonyl)phenyl)nicotinamide] | 58.9 | 151 | > 10000 | 52.5 | 113 |
| Cc1ccc(C(=O)N2CC(c3ccc(-c4cnn(C)c4)cc3)C2)cc1NC(=O)c1ccc2ccccc2n1 [Compound 79, N-(2-methyl-5-(3-(4-(1-methyl-1H-pyrazol-4-yl)phenyl)azetidine-1-carbonyl)phenyl)quinoline-2-carboxamide] | 525 | 182 | ~9550 | 93.3 | 108 |
| Cc1ccc(C(=O)N2CCC(c3ccc(-c4ccccc4)cc3)CC2)cc1NC(=O)c1ccc(NC(C)C)nc1 [Compound 225, N-(5-(4-([1,1′-biphenyl]-4-yl)piperidine-1-carbonyl)-2-methylphenyl)-6-(isopropylamino)nicotinamide] | 589 | 457 | 1580 | 339 | 79 |
| Cc1ccc(C(=O)N2CCC(c3ccc(-c4cnn(C)c4)cc3)CC2)cc1NC(=O)C1CCN(C2CCCC2)CC1 [Compound 180, 1-cyclopentyl-N-(2-methyl-5-(4-(4-(1-methyl-1H-pyrazol-4-yl)phenyl)piperidine-1-carbonyl)phenyl)piperidine-4-carboxamide] | 16.6 | 40.7 | > 10000 | 25.1 | 104 |
| Cc1ccc(C(=O)N2CC(c3ccc(-c4cnn(C)c4)cc3)C2)cc1NC(=O)c1ccccc1F [Compound 82, 2-fluoro-N-(2-methyl-5-(3-(4-(1-methyl-1H-pyrazol-4-yl)phenyl)azetidine-1-carbonyl)phenyl)benzamide] | 95.5 | 85.1 | > 10000 | 22.9 | 98 |
| Cc1ccc(C(=O)N2CCC(c3ccc(-c4cccs4)cc3)CC2)cc1NC(=O)c1ccc(NC(C)C)nc1 [Compound 236, 6-(isopropylamino)-N-(2-methyl-5-(4-(4-(thiophen-2-yl)phenyl)piperidine-1-carbonyl)phenyl)nicotinamide] | 603 | 355 | 1950 | ~309 | 74 |
| Cn1cc(-c2ccc(C3CCN(C(=O)c4ccc(OCc5ccccc5)c(NC(=O)c5ccc(Cl)nc5)c4)CC3)cc2)cn1 [Compound 262, N-(2-(benzyloxy)-5-(4-(4-(1-methyl-1H-pyrazol-4-yl)phenyl)piperidine-1-carbonyl)phenyl)-6-chloronicotinamide] | 617 | 1050 | > 10000 | 263 | 89 |
| CCCCCCN1CCC(C(=O)Nc2cc(C(=O)N3CCC(c4ccc(-c5cnn(C)c5)cc4)CC3)ccc2C)CC1 [Compound 216] | 43.7 | 91.2 | 5620 | 36.3 | 113 |
| Cc1ccc(C(=O)N2CCC(c3ccc(-c4ccc(F)cc4)cc3)CC2)cc1NC(=O)c1ccc(NC(C)C)nc1 [Compound 250, N-(5-(4-(4′-fluoro-[1,1′-biphenyl]-4-yl)piperidine-1-carbonyl)-2-methylphenyl)-6-(isopropylamino)nicotinamide] | 490 | 209 | 1620 | 229 | 65 |
| COc1cccc(C(=O)Nc2cc(C(=O)N3CCC(c4ccc(-c5cnn(C)c5)cc4)CC3)ccc2C)c1 [Compound 94, 3-methoxy-N-(2-methyl-5-(4-(4-(1-methyl-1H-pyrazol-4-yl)phenyl)piperidine-1-carbonyl)phenyl)benzamide] | 148 | 83.2 | 7590 | 20.4 | 100 |
| Cc1ccc(C(=O)N2CCC(c3ccc(-c4cnn(C)c4)cc3)CC2)cc1NC(=O)c1nc(Br)cs1 [Compound 244, 4-bromo-N-(2-methyl-5-(4-(4-(1-methyl-1H-pyrazol-4-yl)phenyl)piperidine-1-carbonyl)phenyl)thiazole-2-carboxamide] | 95.5 | 191 | 8320 | 44.7 | 106 |
| Cc1ccc(C(=O)N2CCC(c3ccc(-c4cnn(C)c4)cc3)CC2)cc1NC(=O)c1ccc(Cl)nc1 [Compound 102, 6-Chloro-N-(2-methyl-5-(4-(4-(1-methyl-1H-pyrazol-4-yl)phenyl)piperidine-1-carbonyl)phenyl)nicotinamide] | 36.3 | 38 | > 10000 | 18.6 | 105 |
| Cc1ccc(C(=O)N2CC(c3ccc(-c4cnn(C)c4)cc3)C2)cc1NC(=O)C1CCCCC1 [Compound 125, N-(2-methyl-5-(3-(4-(1-methyl-1H-pyrazol-4-yl)phenyl)azetidine-1-carbonyl)phenyl)cyclohexanecarboxamide] | 132 | 79.4 | 4790 | 44.7 | 104 |
